Results on 6 compounds are retold here after patent publication US10493035B2, “Tablets comprising 2-hydroxy-6-((2-(1-isopropyl-1H-pyrazol-5-yl)pyridin-3-yl)methoxy)benzaldehyde” (Global Blood Therapeutics, Inc., priority 2016, dated 2019).

The nature of series [1]: Compression profile of neat Form II API (hydraulic press, 200 mg compacts). Type of series: physicochemical. The note with it: for Tablet Hardness / Tablet Thickness: neat API 200 mg. The method, then:
The compressibility of crystalline Form II of Compound 1 (“API”) was determined by compressing neat unformulated API at 200 mg scale compressed in a hydraulic press using 5/16th inch diameter, standard concave round tooling. The resulting tablets were measured for thickness using a digital caliper gauge, and for tensile strength using a tablet hardness tester. […] Lots 1a and 2 were directly from the API manufacturing process, but from different API suppliers. Lot 1b was prepared by taking Lot 1a and subjecting it to hammer milling to cause reduction of particle size.

Series [2] can be described thus: Physicochemical and biopharmaceutical properties of Compound 1 and its crystal forms. As to the method:
Compound 1 is a BCS II compound, where its solubility is the primary biopharmaceutical factor limiting absorption. Compound 1 exists in one form as an ansolvate crystalline form characterized by at least two, three or four X-ray powder diffraction peaks (Cu Kα radiation) selected from 13.37°, 14.37°, 19.95° and 23.92° 2θ (each ±0.2° 2θ) (see, e.g., PCT application Publication No. WO 2015/120133 A1, incorporated herein by reference in its entirety and for all purposes). This form can hereinafter also be referred to as Form II. The physicochemical properties of Compound 1, including its Form II, are not as conducive (compared to other drug substances for formulation) to making a high dosage form of Compound 1. […] The bulk density of Form II of Compound 1 is considered low and its flowability considered poor. Upon milling, the flowability decreases. […] Form II of Compound 1 is also prone to sticking to steel surfaces, such as in processing equipment for tablet manufacture.
In addition, another ansolvate crystalline form of Compound 1, referred to as Form N, is known. Form N has an enantiotropic relationship with Form II, with a transition temperature approximately in the range 30-40° C. Thus, under temperatures (e.g. storage) below 40° C., e.g., at 25° C., Compound 1 is more thermodynamically stable as Form II and at temperatures above 40° C., e.g., at 50° C., Compound 1 is more thermodynamically stable as Form N. To design tablets containing Compound 1, the above physicochemical property limitations of Compound 1 and the high dose requirements need to be accommodated while ensuring that the tablets have dissolution properties that lead to a therapeutic effect.

[3] abbreviates: compression force 2000 lbf, listed as 1a.
Where [4] appears, read: compression force 3000 lbf, listed as 1a.
[5] abbreviates: compression force 4000 lbf, listed as 1a.
The mark [6] stands for this setting: compression force 2000 lbf, listed as 1b.
[7] abbreviates: compression force 3000 lbf, listed as 1b.
The mark [8] stands for this setting: compression force 4000 lbf, listed as 1b.
Setting [9] is: compression force 2000 lbf, listed as 2.
Setting [10] is: compression force 3000 lbf, listed as 2.
[11] abbreviates: compression force 4000 lbf, listed as 2.

For `CC(C)n1nccc1-c1ncccc1COc1cccc(O)c1C=O` [Lot 1a, 2-hydroxy-6-((2-(1-isopropyl-1H-pyrazol-5-yl)pyridin-3-yl)methoxy)benzaldehyde], the “Tablet Hardness” value turned out to be 1.8 kp in series [1] (setting [3]), 1.5 kp in series [1] (setting [4]) and 1.0 kp in series [1] (setting [5]). Further, the figures for the “Tablet Thickness” value in series [1] (setting [3]), in series [1] (setting [4]) and in series [1] (setting [5]) were 4.50 mm, 4.34 mm and 4.35 mm, respectively.
As to `CC(C)n1nccc1-c1ncccc1COc1cccc(O)c1C=O` [Form N, 2-hydroxy-6-((2-(1-isopropyl-1H-pyrazol-5-yl)pyridin-3-yl)methoxy)benzaldehyde], in series [2], the “Transition temperature of the enantiotropic relationship with Form II” value is 30-40 °C.
`CC(C)n1nccc1-c1ncccc1COc1cccc(O)c1C=O` [Lot 1b, 2-hydroxy-6-((2-(1-isopropyl-1H-pyrazol-5-yl)pyridin-3-yl)methoxy)benzaldehyde]: the “Tablet Hardness” value was 2.4 kp in series [1] (setting [6]), 1.2 kp in series [1] (setting [7]) and 1.5 kp in series [1] (setting [8]). Also, the results for the “Tablet Thickness” value in series [1] (setting [6]), in series [1] (setting [7]) and in series [1] (setting [8]) were 4.55 mm, 4.32 mm and 4.43 mm, respectively.
As for `CC(C)n1nccc1-c1ncccc1COc1cccc(O)c1C=O` [Lot 2, 2-hydroxy-6-((2-(1-isopropyl-1H-pyrazol-5-yl)pyridin-3-yl)methoxy)benzaldehyde], the “Tablet Hardness” value in series [1] (setting [9]) turned out to be 9.0 kp; in series [1] (setting [10]), 3.7 kp; in series [1] (setting [11]), 3.4 kp. In addition, the “Tablet Thickness” value came to 4.50 mm in series [1] (setting [9]), 4.27 mm in series [1] (setting [10]) and 4.31 mm in series [1] (setting [11]).
In the case of `CC(C)n1nccc1-c1ncccc1COc1cccc(O)c1C=O` [Compound 1, 2-hydroxy-6-((2-(1-isopropyl-1H-pyrazol-5-yl)pyridin-3-yl)methoxy)benzaldehyde], the BCS class entry in series [2] was “BCS II”.
Consider `CC(C)n1nccc1-c1ncccc1COc1cccc(O)c1C=O` [Form II of Compound 1, 2-hydroxy-6-((2-(1-isopropyl-1H-pyrazol-5-yl)pyridin-3-yl)methoxy)benzaldehyde], for which the “Compressibility (in words)” value in series [1] (neat API) is recorded as “relatively incompressible solid”. For the same compound, in series [2], the “Lipophilicity (in words)” value is recorded as “lipophilic” and the “Water solubility (in words)” value is reported as “poorly water soluble”.
